Measured values from ChEMBL document CHEMBL4834486 (Bioorg Med Chem, 2021).
pIC50: −log10 of the molar value. Active and inactive are the calls of the source. The calls are words filed in the database; no cut-off is given here.

Key:
[1] = test system: MCF-10A; test: Cytotoxicity against human MCF-10A cells assessed as inhibition of cell proliferation measured after 72 hrs by CCK-8 assay; format: cell-based
[2] = test system: MDA-MB-231; test: Antiproliferative activity against human MDA-MB-231 cells assessed as inhibition of cell proliferation measured after 72 hrs by CCK-8 assay; format: functional, cell-based; settings: MDA-MB-231, 72 h
[3] = test system: MCF7; test: Antiproliferative activity against human MCF7 cells assessed as inhibition of cell proliferation measured after 72 hrs by CCK-8 assay; format: functional, cell-based; settings: MCF7, 72 h
[4] = test system: MDA-MB-231; test: Induction of apoptosis in human MDA-MB-231 cells assessed as early apoptotic cells at 1.25 uM measured after 72 hrs by Annexin V-FITC/PI staining based flow cytometry method (reference value: 4.42%); format: functional
[5] = test system: MDA-MB-231; test: Cell cycle arrest in human MDA-MB-231 cells assessed as accumulation of cells at S phase at 1.25 uM measured after 72 hrs by PI staining based flow cytometry method (reference value: 36.19%); format: functional
[6] = test system: MDA-MB-231; test: Induction of DNA damage in human MDA-MB-231 cells assessed as increase in generation of endogenous double strand DNA break adducts measured after 72 hrs by comet assay; format: functional, cell-based; settings: dose 1.25-5 µM
[7] = test system: MDA-MB-231; test: Induction of apoptosis in human MDA-MB-231 cells assessed as late apoptotic cells at 5 uM measured after 72 hrs by Annexin V-FITC/PI staining based flow cytometry method (reference value: 1.34%); format: functional
[8] = test system: MDA-MB-231; test: Cell cycle arrest in human MDA-MB-231 cells assessed as accumulation of cells at G2/M phase at 1.25 uM measured after 72 hrs by PI staining based flow cytometry method (reference value: 12.24%); format: functional
[9] = test system: MDA-MB-231; test: Cell cycle arrest in human MDA-MB-231 cells assessed as accumulation of cells at G2/M phase at 2.5 uM measured after 72 hrs by PI staining based flow cytometry method (reference value: 12.24%); format: functional
[10] = test system: MDA-MB-231; test: Induction of apoptosis in human MDA-MB-231 cells assessed as necrotic cells at 5 uM measured after 72 hrs by Annexin V-FITC/PI staining based flow cytometry method (reference value: 0.97%); format: functional
[11] = test system: MDA-MB-231; test: Induction of apoptosis in human MDA-MB-231 cells assessed as viable cells at 5 uM measured after 72 hrs by Annexin V-FITC/PI staining based flow cytometry method (reference value: 93.27%); format: functional; settings: read-out: Activity
[12] = test system: MDA-MB-231; test: Cell cycle arrest in human MDA-MB-231 cells assessed as accumulation of cells at G1 phase at 5 uM measured after 72 hrs by PI staining based flow cytometry method (reference value: 51.58%); format: functional
[13] = test system: MDA-MB-231; test: Induction of apoptosis in human MDA-MB-231 cells assessed as viable cells at 1.25 uM measured after 72 hrs by Annexin V-FITC/PI staining based flow cytometry method (reference value: 93.27%); format: functional; settings: read-out: Activity
[14] = test system: MDA-MB-231; test: Inhibition of cell adhesion in human MDA-MB-231 cells measured after 72 hrs by fluorescence microscopy; format: functional, cell-based; settings: dose 1.25-5 µM
[15] = test system: MDA-MB-231; test: Induction of apoptosis in human MDA-MB-231 cells assessed as late apoptotic cells at 1.25 uM measured after 72 hrs by Annexin V-FITC/PI staining based flow cytometry method (reference value: 1.34%); format: functional
[16] = test system: MDA-MB-231; test: Induction of ROS generation in human MDA-MB-231 cells at 5 uM measured after 72 hrs by DCFH-DA staining based flow cytometry (reference value: 4.37%); format: functional
[17] = test system: MDA-MB-231; test: Cell cycle arrest in human MDA-MB-231 cells assessed as accumulation of cells at G2/M phase at 5 uM measured after 72 hrs by PI staining based flow cytometry method (reference value: 12.24%); format: functional
[18] = test system: MDA-MB-231; test: Cell cycle arrest in human MDA-MB-231 cells assessed as accumulation of cells at G1 phase at 1.25 uM measured after 72 hrs by PI staining based flow cytometry method (reference value: 51.58%); format: functional
[19] = test system: MDA-MB-231; test: Cell cycle arrest in human MDA-MB-231 cells assessed as accumulation of cells at G1 phase at 2.5 uM measured after 72 hrs by PI staining based flow cytometry method (reference value: 51.58%); format: functional
[20] = test system: MDA-MB-231; test: Induction of apoptosis in human MDA-MB-231 cells assessed as early apoptotic cells at 5 uM measured after 72 hrs by Annexin V-FITC/PI staining based flow cytometry method (reference value: 4.42%); format: functional
[21] = test system: MDA-MB-231; test: Cell cycle arrest in human MDA-MB-231 cells assessed as accumulation of cells at S phase at 5 uM measured after 72 hrs by PI staining based flow cytometry method (reference value: 36.19%); format: functional
[22] = test system: MDA-MB-231; test: Cell cycle arrest in human MDA-MB-231 cells assessed as accumulation of cells at S phase at 2.5 uM measured after 72 hrs by PI staining based flow cytometry method (reference value: 36.19%); format: functional
[23] = test system: MDA-MB-231; test: Induction of apoptosis in human MDA-MB-231 cells assessed as early apoptotic cells at 2.5 uM measured after 72 hrs by Annexin V-FITC/PI staining based flow cytometry method (reference value: 4.42%); format: functional
[24] = test system: MDA-MB-231; test: Inhibition of cell invasion in human MDA-MB-231 cells at 1.25 to 5 uM measured after 24 hrs by transwell assay; format: functional, cell-based; settings: dose 1.25-5 µM
[25] = test system: MDA-MB-231; test: Induction of apoptosis in human MDA-MB-231 cells assessed as necrotic cells at 1.25 uM measured after 72 hrs by Annexin V-FITC/PI staining based flow cytometry method (reference value: 0.97%); format: functional
[26] = test system: MDA-MB-231; test: Induction of apoptosis in human MDA-MB-231 cells assessed as late apoptotic cells at 2.5 uM measured after 72 hrs by Annexin V-FITC/PI staining based flow cytometry method (reference value: 1.34%); format: functional
[27] = test system: MDA-MB-231; test: Induction of apoptosis in human MDA-MB-231 cells assessed as viable cells at 2.5 uM measured after 72 hrs by Annexin V-FITC/PI staining based flow cytometry method (reference value: 93.27%); format: functional; settings: read-out: Activity
[28] = test system: MDA-MB-231; test: Induction of ROS generation in human MDA-MB-231 cells at 2.5 uM measured after 72 hrs by DCFH-DA staining based flow cytometry (reference value: 4.37%); format: functional
[29] = test system: MDA-MB-231; test: Induction of apoptosis in human MDA-MB-231 cells assessed as necrotic cells at 2.5 uM measured after 72 hrs by Annexin V-FITC/PI staining based flow cytometry method (reference value: 0.97%); format: functional
[30] = test system: MDA-MB-231; test: Induction of ROS generation in human MDA-MB-231 cells at 1.25 uM measured after 72 hrs by DCFH-DA staining based flow cytomtery (reference value: 4.37%); format: functional
[31] = test system: MDA-MB-231; test: Inhibition of cell migration in human MDA-MB-231 cells measured after 24 hrs by scratch wound healing assay; format: functional, cell-based; settings: dose 1.25-5 µM
[32] = test system: MDA-MB-231; test: Induction of DNA damage in human MDA-MB-231 cells assessed as increase in tail DNA measured after 72 hrs by comet assay; format: functional, cell-based; settings: dose 1.25-5 µM

## COc1ccc(-c2nc(COC(=O)[C@H](Cc3ccc(N(CCCl)CCCl)cc3)NC=O)cc3c2[nH]c2ccccc23)cc1
[1]
  pIC50: 4.50
[2]
  pIC50: 5.24
[3]
  pIC50: 5.37

## COc1ccc(-c2nc(COC(=O)[C@H](Cc3ccc(N(CCCl)CCCl)cc3)NC(=O)OC(C)(C)C)cc3c2[nH]c2ccccc23)cc1
[1]
  pIC50: < 4.40
[2]
  pIC50: 4.71
[3]
  pIC50: 5.27

## OCc1cc2c(cn1)[nH]c1ccccc12
[1]
  pIC50: < 4.40
[2]
  pIC50: < 4.70
[3]
  pIC50: < 4.70

## O=C(OCc1cc2c(cn1)[nH]c1ccccc12)c1ccc(N(CCCl)CCCl)cc1
[1]
  pIC50: < 4.40
[2]
  pIC50: 5.02
[3]
  pIC50: 5.64

## COC(=O)[C@H](Cc1ccc(N(CCCl)CCCl)cc1)NC(=O)CCC(=O)OCc1cc2c([nH]c3ccccc32)c(-c2ccc(OC)cc2)n1
[1]
  pIC50: < 4.40
[2]
  pIC50: < 4.70
[3]
  pIC50: 4.77

## COC(=O)[C@H](Cc1ccc(N(CCCl)CCCl)cc1)NC(=O)CCC(=O)OCc1cc2c([nH]c3ccccc32)c(C)n1
[1]
  pIC50: < 4.40
[2]
  pIC50: < 4.70
[3]
  pIC50: < 4.70

## COC(=O)[C@H](Cc1ccc(N(CCCl)CCCl)cc1)NC(=O)CCCC(=O)OCc1cc2c(cn1)[nH]c1ccccc12
[1]
  pIC50: < 4.40
[2]
  pIC50: < 4.70
[3]
  pIC50: < 4.70

## Cc1nc(COC(=O)[C@H](Cc2ccc(N(CCCl)CCCl)cc2)NC(=O)OC(C)(C)C)cc2c1[nH]c1ccccc12
[1]
  pIC50: < 4.40
[2]
  pIC50: 4.76
[3]
  pIC50: 5.31

## Cc1nc(COC(=O)[C@H](Cc2ccc(N(CCCl)CCCl)cc2)NC=O)cc2c1[nH]c1ccccc12
[4]
  Activity: 8.77%
[5]
  Activity: 38.53%
[6]
  Activity: Dose-Dependent Effect
[7]
  Activity: 22.85%
[8]
  Activity: 13.62%
[9]
  Activity: 16.45%
[10]
  Activity: 5.32%
[11]
  viability at 5 µM: 48.5%
[12]
  Activity: 42.06%
[13]
  viability at 1.25 µM: 78%
[1]
  pIC50: 4.65
[14]
  inhibition: Dose-Dependent Effect
[15]
  Activity: 9.71%
[16]
  Activity: 47.15%
[17]
  Activity: 20.2%
[18]
  Activity: 47.85%
[19]
  Activity: 44.83%
[20]
  Activity: 23.28%
[21]
  Activity: 37.74%
[22]
  Activity: 38.72%
[2]
  pIC50: 5.30
[23]
  Activity: 12.24%
[24]
  inhibition: Active
[25]
  Activity: 3.49%
[26]
  Activity: 10.22%
[27]
  viability at 2.5 µM: 74.2%
[28]
  Activity: 20.33%
[29]
  Activity: 3.39%
[30]
  Activity: 17.2%
[3]
  pIC50: 5.75
[31]
  inhibition: Dose-Dependent Effect
[32]
  Activity: Dose-Dependent Effect

## COc1cccc2c1C(=O)c1c(O)c3c(c(O)c1C2=O)C[C@@](O)(C(=O)CO)C[C@@H]3O[C@H]1C[C@H](N)[C@H](O)[C@H](C)O1 [DOXORUBICIN]
[2]
  pIC50: 5.56
